{"source": "patent US20190111111A1", "about": "“Treatment of Cerebral Cavernous Malformations” (The Regents of the University of California, priority 2016, published 2019)", "key": {"[1]": {"test_system": "Krit1^ECKO BMEC", "test": "KLF2 and KLF4 mRNA in Krit1^ECKO BMEC (RT-qPCR)", "assay_type": "cell-based, mouse", "conditions": "in vitro, FIG. 5d", "description": "(§1) BMEC at passages 1-3 were maintained at 37° C. in 95% air and 5% CO2 and were grown to 85% confluence and treated for 48 h with 5 μM 4-hydroxy-tamoxifen (Sigma, H7904) after which the medium was replaced with medium lacking 4-hydroxy-tamoxifen and cells were harvested after 72 hr in culture. For TSP1 and 3TSR addition experiments, after 24 h in regular medium, the 5 nM mrTSP1 (R&D systems, 7859-TH), 20 nM 3TSR, or vehicle were added. After 48 hr a second dose of TSP1, 3TSR, or vehicle were added and cells were harvested after an additional 24 h (FIG. 11a-11d).\nPrimary BMEC, human umbilical vein endothelial cells (HUVEC) and freshly isolated brain microvasculature total RNA were isolated using Trizol reagent, according to the manufacturer's protocol (ThermoFisher). For gene expression analysis, single stranded cDNA was produced from 10 ng of total RNA of BMEC using SuperScript III First-Strand synthesis and random primers according to the manufacture's protocol (ThermoFisher). KAPPA SyberFast qPCR kit (Kapa Biosystems) and thermal cycler (CFX96 Real-Time System, Bio-Rad) were used to determine the relative levels of the genes analyzed (primer sequences not shown) according to the manufacturer's protocol. Actin mRNA levels were used as an internal control and the 2^−ΔΔCT method was used for analysis of the data. […]"}, "[2]": {"test_system": "Krit1^ECKO BMEC", "test": "ZO-1 tight junction staining in BMEC after Krit1 inactivation (immunofluorescence)", "assay_type": "cell-based, mouse", "description": "as §1\nBMEC were grown to confluence on collagen coated cover glass (Fisher Scientific, 12-545-81) and cells were fixed for 10 min at room temperature with 4% paraformaldehyde (PFA) in phosphate-buffered saline (PBS; pH 7.4) and then permeabilized with 0.5% Triton X-100 in PBS for 5 min. […]\nThe slides were viewed with a high-resolution SP5 confocal microscope (Leica Microsystems) and the images were captured with Leica application suite (LAS) software (Leica Microsystems). […] The quantification analysis was performed using Volocity® software on high-resolution confocal images."}}, "note": "“Also recorded” adds a separate entry of the source.", "data": [{"molecule": "TSP1: mouse recombinant full length thrombospondin 1 (R&D systems, 7859-TH), a large (~450 kDa) glycoprotein", "values": [{"measurement": "rise in KLF2 or KLF4 mRNA following Krit1 inactivation", "setting": "[1]", "result": "Neither TSP1 nor 3TSR prevented"}, {"measurement": "ZO-1 at BMEC tight junctions following Krit1 inactivation", "setting": "[2]; 5 nM mouse recombinant TSP1, Krit1^ECKO BMEC, FIG. 3a", "result": "continuous ZO1 junctional staining; also recorded: prevented the loss of ZO-1 from BMEC tight junctions"}]}, {"molecule": "Cc1cc(C)c(/C=C2\\C(=O)Nc3ccccc32)[nH]1", "note": "[SU5416, reference compound]", "values": [{"measurement": "ZO1 junctional staining following Krit1 inactivation", "setting": "[2]; 2 μM SU5416, Krit1^ECKO BMEC, FIG. 13c", "result": "continuous ZO1 junctional staining"}]}]}
